Structures are written as SMILES.

The target in one assay is T1, recombinant human MMP-13 (Homo sapiens, UniProt P45452).
T1 construct: made in house; host or cells: baculovirus (pBlueBac4 / Bac-N-Blue; virus made in Sf9), expressed in High-Five insect cells; culture supernatant used
Nature of the assay: Assay of MMP-13 inhibiting activity (fluorogenic peptide substrate). It is filed as biochemical. The conditions noted are these: Table 3; 37° C., 2 hours. The text has this: Based on the sequence described in the literature by Freije, J. M. et al (Journal of Biological Chemistry, 269: 16766-16773, 1994) and using a PCR method known per se, a human MMP-13 cDNA was obtained.
A pBlueBac4 (Invitrogen) and a Baculovirus vector Bac-N-Blue (Invitrogen) to each of which the human MMP-13 cDNA obtained above was integrated were co-transfected to an Sf9 cell to obtain a MMP-13-expressing recombinant virus.
The recombinant virus thus obtained was infected to a High-Five cell (Invitrogen), and the culture supernatant after three days was employed as an enzyme solution. Experiment 2 Assay of MMP-13 inhibiting activity
75 μl of a sample containing the recombinant human MMP-13, 200 mM sodium chloride, 20 mM calcium chloride, 0.1% Brij 35, 1 mM 2-mercaptoethanol, 200 mM tris-HCl buffer solution (pH7.5) and a test substance at various concentrations was treated with 25 μl of 40 μM MOCAc-Pro-Leu-Gly-Leu-A2pr(DNP)-Ala-Arg-NH2 (PEPTIDE KENKYUSHO) to initiate a reaction and kept at 37° C. for 2 hours, and then 100 μl of 500 mM sodium acetate-HCl buffer solution (pH3.0) was added to terminate the reaction.
The level of liberated MOCAc-Pro-Leu-Gly was determined using a fluorophotometer (MTP-32/F2: CORONA DENKI) at the excitation wavelength of 330 nm and the fluorescent wavelength of 405 nm. The fluorescent level of the reaction in the absence of a test substance was regarded as 100%, and the concentration of each test substance required for achieving 50% inhibition was indicated as IC50.
For `NC(=O)S[C@@H]1CC(=O)N(Cc2ccc(Oc3ccccc3)cc2)C1` [Example 49, S-[(3R)-5-oxo-1-(4-phenoxybenzyl)pyrrolidinyl]thiocarbamate], the IC50 amounted to 0.65 nM.
On the same count and under the same terms, next, `CNC(=O)S[C@@H]1CC(=O)N(Cc2ccc(Oc3ccccc3)cc2)C1` [Example 50, S-[(3R)-5-oxo-1-(4-phenoxybenzyl)pyrrolidinyl]methylthiocarbamate]: 3 nM.
Regarding `CCNC(=O)S[C@@H]1CC(=O)N(Cc2ccc(Oc3ccccc3)cc2)C1` [Example 51, S-[(3R)-5-oxo-1-(4-phenoxybenzyl)pyrrolidinyl]ethylthiocarbamate], the IC50 worked out at 1 nM.
Same read-out and setting: next, `CCCNC(=O)SC1CC(=O)N(Cc2ccc(Oc3ccccc3)cc2)C1` (stereo not drawn) [Example 52, S-[5-oxo-1-(4-phenoxybenzyl)-3-pyrrolidinyl]propylcarbamothioate]: 2 nM; `O=C(Nc1ccccc1)SC1CC(=O)N(Cc2ccc(Oc3ccccc3)cc2)C1` (stereo not drawn) [Example 53, S-[5-oxo-1-(4-phenoxybenzyl)-3-pyrrolidinyl]phenylcarbamothioate]: 1 nM; `O=C(NCc1ccccc1)S[C@@H]1CC(=O)N(Cc2ccc(Oc3ccccc3)cc2)C1` [Example 54, S-[(3R)-5-oxo-1-(4-phenoxybenzyl)pyrrolidinyl]benzylthiocarbamate]: 1.5 nM.
Take `CC(=O)NC(=O)S[C@@H]1CC(=O)N(Cc2ccc(Oc3ccccc3)cc2)C1` [Example 55, S-[(3R)-5-oxo-1-(4-phenoxybenzyl)pyrrolidinyl]acetylthiocarbamate]: the IC50 was 1.3 nM.
`O=C(NC(=O)c1ccccc1)S[C@@H]1CC(=O)N(Cc2ccc(Oc3ccccc3)cc2)C1` [Example 56, S-[(3R)-5-oxo-1-(4-phenoxybenzyl)pyrrolidinyl]benzoylthiocarbamate]: the half-inhibitory concentration (IC50) was 1.4 nM.
Turning to `CCOC(=O)NC(=O)S[C@@H]1CC(=O)N(Cc2ccc(Oc3ccccc3)cc2)C1` [Example 57, O-Ethyl S-[(3R)-5-oxo-1-(4-phenoxybenzyl)pyrrolidinyl]imidothiodicarbonate], the IC50 was 0.81 nM.
Same read-out and setting: next, `CCOC(=O)CNC(=O)S[C@@H]1CC(=O)N(Cc2ccc(Oc3ccccc3)cc2)C1` [Example 58, Ethyl [({[(3R)-5-oxo-1-(4-phenoxybenzyl)pyrrolidinyl]sulfanyl}carbonyl)amino]acetate]: 0.7 nM; `O=C(O)CNC(=O)S[C@@H]1CC(=O)N(Cc2ccc(Oc3ccccc3)cc2)C1` [Example 59, [({[(3R)-5-Oxo-1-(4-phenoxybenzyl)pyrrolidinyl]sulfanyl}carbonyl)amino]acetic acid]: 2 nM; `CCOC(=O)CCNC(=O)S[C@@H]1CC(=O)N(Cc2ccc(Oc3ccccc3)cc2)C1` [Example 60, Ethyl [({[(3R)-5-oxo-1-(4-phenoxybenzyl)pyrrolidinyl]sulfanyl}carbonyl)amino]propanoate]: 0.9 nM.
Same read-out and setting: with `O=C(O)CCNC(=O)S[C@@H]1CC(=O)N(Cc2ccc(Oc3ccccc3)cc2)C1` [Example 61, N-({[(3R)-5-oxo-1-(4-phenoxybenzyl)pyrrolidinyl]sulfanyl}carbonyl)-p-alanine] the figure was 1.8 nM; with `CN(C)C(=O)S[C@@H]1CC(=O)N(Cc2ccc(Oc3ccccc3)cc2)C1` [Example 62, S-[(3R)-5-oxo-1-(4-phenoxybenzyl)pyrrolidinyl]dimethylcarbamothioate], 3000 nM.
On the same count and under the same terms, with `O=C1C[C@@H](SC(=O)N2CCOCC2)CN1Cc1ccc(Oc2ccccc2)cc1` [Example 63, S-[(3R)-5-oxo-1-(4-phenoxybenzyl)pyrrolidinyl]4-morpholinecarbothioate] the figure was 2000 nM; with `CCC(=O)S[C@@H]1CC(=O)N(Cc2ccc(Oc3ccccc3)cc2)C1` [Example 64, S-[(3R)-5-oxo-1-(4-phenoxybenzyl)pyrrolidinyl]propanethioate], 3.2 nM.
Turning to `CCCC(=O)S[C@@H]1CC(=O)N(Cc2ccc(Oc3ccccc3)cc2)C1` [Example 65, S-[(3R)-5-oxo-1-(4-phenoxybenzyl)pyrrolidinyl]butanethioate], the IC50 was 1.3 nM.
The same measure, in the same setting: with `CCCCC(=O)SC1CC(=O)N(Cc2ccc(Oc3ccccc3)cc2)C1` (stereo not drawn) [Example 66, S-[5-oxo-1-(4-phenoxybenzyl)-3-pyrrolidinyl]pentanethioate] the figure was 1 nM; with `CC(C)C(=O)S[C@@H]1CC(=O)N(Cc2ccc(Oc3ccccc3)cc2)C1` [Example 67, S-[(3R)-5-oxo-1-(4-phenoxybenzyl)pyrrolidinyl]2-methylpropanethioate], 11 nM; with `O=C(Cc1ccccc1)SC1CC(=O)N(Cc2ccc(Oc3ccccc3)cc2)C1` (stereo not drawn) [Example 68, S-[5-oxo-1-(4-phenoxybenzyl)-3-pyrrolidinyl]2-phenylethanethioate], 2 nM.

The assay is the same for the next values; noted with them: Table 4; 37° C., 2 hours.
On to `CC(=O)SC1CC(=O)N(Cc2cccc(Oc3ccccc3)c2)C1` (stereo not shown) [Example 40, 4-Acetylthio-1-(3-phenoxybenzyl)pyrrolidin-2-one], for which the IC50 amounted to 1000 nM.
Same read-out and setting: next, `O=C1CC(S)CN1Cc1cccc(Oc2ccccc2)c1` (stereo not shown) [Example 41, 4-Mercapto-1-(3-phenoxybenzyl)pyrrolidin-2-one]: 200 nM.

The assay is the same for the next values; noted with them: Table 7; 37° C., 2 hours.
Regarding `O=C1C[C@@H](SS[C@@H]2CC(=O)N(Cc3ccc(Oc4ccccc4)cc3)C2)CN1Cc1ccc(Oc2ccccc2)cc1` [Example 26, (4R,4′R)-4,4′-Dithiobis[1-(4-phenoxybenzyl)pyrrolidin-2-one]], the IC50 is 70 nM.

Still in this assay, the particulars now being: Table 8; 37° C., 2 hours.
As for `CC(=O)SC1CCN(Cc2ccc(Oc3ccccc3)cc2)C1=O` (stereo not shown) [Example 27, 3-Acetylthio-1-(4-phenoxybenzyl)pyrrolidin-2-one], the IC50 is over 10000 nM.
The same measure, in the same setting: with `O=C(SC1CCN(Cc2ccc(Oc3ccccc3)cc2)C1=O)c1ccccc1` (stereo not shown) [Example 28, 3-Benzoylthio-1-(4-phenoxybenzyl)pyrrolidin-2-one] the figure was 1000 nM.
Same read-out and setting: next, `O=C1C(S)CCN1Cc1ccc(Oc2ccccc2)cc1` (stereo not shown) [Example 29, 3-Mercapto-1-(4-phenoxybenzyl)pyrrolidin-2-one]: 2000 nM.

Staying with this assay, now noted: Table 9; 37° C., 2 hours.
Take `CC(=O)SC1CC(=O)N(Cc2ccc(Oc3ccc(F)cc3)cc2)C1` (stereo not shown) [Example 30, 4-Acetylthio-1-(4-(4′-fluorophenoxy)benzyl)pyrrolidin-2-one]: the IC50 was determined as 10 nM.
On to `O=C1CC(S)CN1Cc1ccc(Oc2ccc(F)cc2)cc1` (stereo not shown) [Example 31, 4-Mercapto-1-(4-(4′-fluorophenoxy)benzyl)pyrrolidin-2-one], for which the IC50 amounted to 3 nM.
`CC(=O)SC1CC(=O)N(Cc2ccc(Oc3ccc(Cl)cc3)cc2)C1` (stereo not shown) [Example 32, 4-Acetylthio-1-(4-(4′-chlorophenoxy)benzyl)pyrrolidin-2-one]: the IC50 amounted to 8 nM.
Still for that read-out and setting: next, `O=C1CC(S)CN1Cc1ccc(Oc2ccc(Cl)cc2)cc1` (stereo not shown) [Example 33, 4-Mercaoto-1-(4-(4′-chlorophenoxy)benzyl)pyrrolidin-2-one]: 5 nM.
On the same count and under the same terms, with `CC(=O)SC1CC(=O)N(Cc2ccc(Oc3ccc(Br)cc3)cc2)C1` (stereo not shown) [Example 34, 4-Acetylthio-1-(4-(4′-bromophenoxy)benzyl)pyrrolidin-2-one] the figure was 10 nM; with `O=C1CC(S)CN1Cc1ccc(Oc2ccc(Br)cc2)cc1` (stereo not shown) [Example 35, 4-Mercapto-1-(4-(4′-bromophenoxy)benzyl)pyrrolidin-2-one], 6 nM.
Turning to `COc1ccc(Oc2ccc(CN3CC(SC(C)=O)CC3=O)cc2)cc1` (stereo not shown) [Example 36, 4-Acetylthio-1-(4-(4′-methoxyphenoxy)benzyl)pyrrolidin-2-one], the IC50 is 50 nM.
On the same count and under the same terms, with `COc1ccc(Oc2ccc(CN3CC(S)CC3=O)cc2)cc1` (stereo not shown) [Example 37, 4-Mercapto-1-(4-(4′-methoxyphenoxy)benzyl)pyrrolidin-2-one] the figure was 5 nM.

Still in this assay, the particulars now being: Table 13; 37° C., 2 hours.
Take `CC(=O)SC1CCC(=O)N(Cc2ccc(Oc3ccccc3)cc2)C1=O` (stereo not shown) [Example 42, 3-Acetylthio-1-(4-phenoxybenzyl)piperidine-2,6-dione]: the IC50 came out at 70 nM.
With `CC(=O)SC1CCC(=O)N(Cc2ccc(Oc3ccc(Br)cc3)cc2)C1=O` (stereo not shown) [Example 43, 3-Acetylthio-1-[4-(4-bromophenoxy)benzyl]piperidine-2,6-dione], the IC50 is 20 nM.
Same read-out and setting: with `O=C(SC1CCC(=O)N(Cc2ccc(Oc3ccccc3)cc2)C1=O)c1ccccc1` (stereo not shown) [Example 44, 3-Benzoylthio-1-(4-phenoxybenzyl)piperidine-2,6-dione] the figure was 10 nM; with `CC(=O)SC1CCCN(Cc2ccc(Oc3ccccc3)cc2)C1=O` (stereo not shown) [Example 46, 3-Acetylthio-1-(4-phenoxybenzyl)piperidin-2-one], over 10000 nM.
Still for that read-out and setting: next, `O=C(SC1CCCN(Cc2ccc(Oc3ccccc3)cc2)C1=O)c1ccccc1` (stereo not shown) [Example 47, 3-Benzoylthio-1-(4-phenoxybenzyl)piperidin-2-one]: 4000 nM; `O=C1C(S)CCCN1Cc1ccc(Oc2ccccc2)cc1` (stereo not shown) [Example 48, 3-Mercapto-1-(4-phenoxybenzyl)piperidin-2-one]: 5000 nM.

Source of the values: patent US6953789B2, “Thiol compounds, their production and use” (Takeda Chemical Industries, Ltd., priority 1998, dated 2005).
